Laboratory results as given in US12162836B2, “N-acyl-{4-[(4-aryl-phenyl)sulfonylmethyl]piperidine} compounds and their therapeutic use” (Modern Biosciences Limited, priority 2019, dated 2024).
pIC50: −log10 of the molar value. Values after ≈ are worked out from the molar mass of the structure shown.

Assays:
[1] = molecular target: hERG ion channel (Homo sapiens (Human), UniProt Q12809); test: hERG Ion Channel binding assay (3H astemizole displacement)
Method: (§1) The activity of the compounds against the hERG ion channel was tested using a binding assay in stably transfected Human Embryonic Kidney cells (hERG-HEK293). hERG-HEK293 cells were cultured in MEM medium (Invitrogen)+10% FBS, glutamine and non-essential amino acids at 37° C. To prepare membranes, cells were homogenised on ice, centrifuged at 650×g for 10 minutes at +4° C., and the resulting supernatant centrifuged at 48000×g for 10 minutes at +4° C. The pellet was resuspended in ice-cold 50 mM Tris-HCl buffer, 5 mM KCl (pH 8.5) and stored frozen in aliquots until use.
(§2) For binding assays, membranes were thawed, re-suspended in assay buffer (10 mM HEPES pH 7.4, 0.1% BSA, 5 mM potassium chloride, 0.8 mM magnesium chloride, 130 mM sodium chloride, 1 mM sodium-EGTA, 10 mM glucose) and incubated with ^3H astemizole (1.5 nM), and with or without test compound at 25° C. for 60 minutes. Binding was determined following filtration of the membranes and washing in Tris-HCl buffer by scintillation counting of ^3H astemizole.
(§3) The degree of binding of compounds to the hERG ion channel (%) was obtained by measuring the binding of ^3H astemizole and its displacement by test compound. A value of 0% indicates no binding and a value of 100% indicates complete displacement of the radiolabelled ligand.

[2] = molecular target: hERG (Homo sapiens (Human), UniProt Q12809); test: as above; conditions: human, membranes of HEK293 cells stably expressing hERG, pH 7.4, probe 3H astemizole (1.5 nM); 30 μM; displacement of 3H astemizole, hERG-HEK293 membranes
hERG, sequence (Q12809 whole entry): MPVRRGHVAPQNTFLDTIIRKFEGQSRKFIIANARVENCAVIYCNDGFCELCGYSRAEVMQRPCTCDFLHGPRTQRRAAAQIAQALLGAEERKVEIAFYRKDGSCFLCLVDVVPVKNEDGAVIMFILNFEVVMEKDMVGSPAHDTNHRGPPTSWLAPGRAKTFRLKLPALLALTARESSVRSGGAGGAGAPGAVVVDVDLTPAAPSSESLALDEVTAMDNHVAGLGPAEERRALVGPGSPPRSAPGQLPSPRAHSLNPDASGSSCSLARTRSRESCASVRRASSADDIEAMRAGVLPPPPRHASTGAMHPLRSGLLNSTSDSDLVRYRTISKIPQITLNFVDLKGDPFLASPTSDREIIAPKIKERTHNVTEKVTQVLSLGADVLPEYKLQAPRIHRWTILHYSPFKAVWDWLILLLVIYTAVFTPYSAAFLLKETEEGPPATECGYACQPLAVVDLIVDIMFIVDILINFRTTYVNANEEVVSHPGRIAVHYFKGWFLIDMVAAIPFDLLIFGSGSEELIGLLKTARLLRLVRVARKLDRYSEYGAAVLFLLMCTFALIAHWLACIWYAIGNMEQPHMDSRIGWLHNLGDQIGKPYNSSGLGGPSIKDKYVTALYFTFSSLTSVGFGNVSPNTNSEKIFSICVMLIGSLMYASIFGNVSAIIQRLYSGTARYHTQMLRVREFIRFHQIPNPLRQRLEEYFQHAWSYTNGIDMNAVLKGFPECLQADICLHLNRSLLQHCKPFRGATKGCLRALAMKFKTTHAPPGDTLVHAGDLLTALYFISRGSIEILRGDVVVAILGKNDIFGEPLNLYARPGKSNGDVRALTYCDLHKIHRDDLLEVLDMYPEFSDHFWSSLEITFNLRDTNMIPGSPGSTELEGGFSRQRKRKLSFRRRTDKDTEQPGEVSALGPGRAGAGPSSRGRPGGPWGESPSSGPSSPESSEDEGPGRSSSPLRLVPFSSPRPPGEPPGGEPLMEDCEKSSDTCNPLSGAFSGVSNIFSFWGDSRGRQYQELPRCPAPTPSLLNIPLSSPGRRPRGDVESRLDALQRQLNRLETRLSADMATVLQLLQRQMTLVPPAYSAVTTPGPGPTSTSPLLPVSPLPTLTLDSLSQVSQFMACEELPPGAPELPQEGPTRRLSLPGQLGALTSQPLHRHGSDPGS
Method: as §1, §2, §3

[3] = Aqueous solubility in FaSSIF; format: physicochemical; conditions: for solubility at 16 h: kinetic from dmso stock, pH 6.5, 16 hours, room temperature
Method: Aqueous solubility was measured by equilibration of compounds with fasted state simulated intestinal fluid (FaSSIF) and quantified spectrophotometrically.
Preparation of blank FaSSIF: 0.21 g of sodium hydroxide (NaOH) pellets, 1.97 g of dihydrogen sodium phosphate (NaH2PO4.2H2O) and 3.09 g of sodium chloride (NaCl) were dissolved in 400 mL of deionised water. The pH was adjusted to 6.5 using 1 M hydrochloric acid and further deionised water added to a final volume of 500 mL.
Preparation of FaSSIF: 0.056 g of SIF Powder (containing sodium taurocholate and lecithin) (Pharses A G) was dissolved in 25 mL of blank FaSSIF and stirred until the powder was completely dissolved. The solution was allowed to stand for 2 hours during which it became opalescent; it was used within 24 hours. The final solution composition was characterised as follows: • Sodium taurocholate: 3 mM • Lecithin: 0.75 mM • Osmolarity: 270±10 mOsmol • pH: 6.5
The optical density was measured at the end of the incubation period for test compounds and a reference used to determine solubility. In brief, two samples were prepared for each determination: a reference sample consisting of a stock solution of test compound in DMSO diluted in system solution (a phosphate free, low absorption buffer) and propanol; and a test sample (prepared in triplicate) consisting of 0.5 mL FaSSIF spiked with test compound at 0.2 mM. Each sample was incubated at room temperature for 16 hours with constant shaking at 250 rpm. At the end of the incubation period, 0.3 mL of each sample was filtered through a pION filter plate (PION, Woburn MA), diluted 1:1 with propanol and scanned using UV spectrophotometry at Amax ([…]) using a Spectra Max Plus—Version 2.1000 (Molecular Devices, Sunnyvale, CA), with pSOL Explorer solubility determination software (pION, Woburn, MA).
FaSSIF solubility was calculated using the following formula:
[formula] • wherein: • “OD” is the optical density; • “Cr” is the concentration of the reference (33.4 μM); and • “molecular weight” is for the test compound (e.g., 381.44 for ABD735).

[4] = system: Thp1 human monocytic cells; test: Thp1 Monocyte ATP Production Assay (ATPlite); format: cell-based; conditions: Homo sapiens, THP-1, Thp1 cells, 24 hour incubation, mean of 2 independent experiments
Method: In vitro potency of test compounds was determined by incubation with Thp1 human monocytic cells and subsequent determination of Adenosine TriPhosphate (ATP) levels using firefly luciferase.
ATP is present in all metabolically active cells. When cells lose integrity, their ability to synthesise ATP is rapidly lost. […] See, e.g., Kang et al., 2015; Jiang et al., 2013. Levels of ATP can be monitored using a system based on firefly (Photinus pyralis) luciferase (see, e.g., Auld et al., 2009) using commercially available kits. A system known as ATPlite™ was using to measure effects of the test compounds on cellular viability in vitro. This one-step assay system is an adenosine triphosphate (ATP) monitoring system based on the production of light caused by the reaction of ATP from the cells with added luciferase and D-luciferin, as illustrated in the reaction scheme below:
Thp1 cells were plated at 112500 cells per well in 125 μL RPMI-1640 (no glucose) with 1% FBS in 96-well plates. Test compounds were prepared as 100 mM solutions in DMSO. These stock solutions were diluted in DMSO and then diluted 1000× in culture medium (RPMI) before being added directly to the wells so as to give the desired final compound concentration. After a 24 hour incubation at 37° C./5% CO2, ATPLite™ (Perkin Elmer) was added to each well (1:10 v/v, 10 μL). The plate was then incubated at room temperature for 5 minutes and the emitted light was quantified on Viewlux with a measurement time of 0.3 seconds and binning 4×4.
The average results for each test compound were expressed as a percent (%) of the average control value reflecting cell viability. The average values across the concentrations tested were then plotted and the IC50 for was calculated by fitting the data to a 4-parameter IC50 equation using software from Graf it (Erithacus Software). Each experiment was repeated twice and the data are presented as the mean IC50 from both experiments.

[5] = Human Hepatocyte Stability; format: in vitro ADME; conditions: pooled human hepatocytes, 1 μM, 60 minute incubation; for half-life at 1 μM: read-out: Human t1/2
Method: (§4) Metabolic stability of test compounds was measured by determination of the rate of disappearance of the compound when incubated in the presence of human hepatocytes, a primary source of the most important enzymes (cytochrome P450s) involved in drug metabolism. Study of drug stability in the presence of primary hepatocytes is accepted as a valuable model permitting rapid prediction of in vivo drug stability.
(§5) Human hepatocytes were obtained from a commercial source and viability was assessed using a trypan blue solution prior to use. Test compounds (final concentration 1 μM, 0.1 DMSO, 0.9% acetonitrile) or a marker (diclofenac or diltiazem, final assay concentration 1 μM, 0.1% DMSO, 0.9% acetonitrile) were incubated with pooled hepatocytes for a 60 minute period and samples removed at up to 6 time points and analysed by LC-MS/MS for the presence/amount of test compounds.
(§6) Each compound was incubated for 0, 5, 15, 30, 45, or 60 minutes. The reactions were stopped by the addition of methanol containing an internal standard (1 μM Tolbutamide) at the appropriate time points, mixed and placed at −20° C. for 1 hour to quench and allow protein to precipitate. All samples were centrifuged (2500× g, 20 minutes, 4° C.). The aliquots were analysed using LC-MS/MS. Reactions were performed in duplicate at 37° C.
(§7) Data were processed, and the results plotted as In(concentration) vs. time. The elimination rate constant (slope of the regression line, k) was calculated using the following formula, where C(t) is the concentration at time t and C(0) is the starting concentration:
(§8) The half-life (t1/2) was calculated using the following formula: […]
(§9) The intrinsic clearance (Clint) was calculated using the following formula, where [cell] is the hepatocyte concentration in the assay: […]

[6] = system: human hepatocytes; test: Human Hepatocyte Stability; format: in vitro ADME; conditions: human hepatocytes
Method: as §4, §5, §6, §7, §8, §9

[7] = system: collagen-induced arthritis in DBA/1j mice; test: Mouse Collagen-Induced Arthritis; format: in vivo; conditions: 10 mg/kg/day, once daily for 14 days, oral gavage; arthritic index vs control
Method: Seven- to eight-week-old male DBA/1j mice were used for all procedures. Animals were housed in groups of 10, and were maintained at 21° C.±2° C. on a 12-hour light/dark cycle with food and water ad libitum. Complete Freund's adjuvant (CFA) was prepared by emulsifying bovine type II collagen at 4 mg/mL with a 4 mg/mL suspension of Mycobacterium tuberculosis H37Ra in Incomplete Freund's Adjuvant (IFA) (0.85 mL paraffin oil and 0.15 mL mannide monooleate) in a 1:1 (v/v) ratio. All mice were immunised subcutaneously with 200 μg of bovine type II collagen in CFA. 21 days later, all mice were immunised subcutaneously with 100 μg of bovine type II collagen in IFA. The mice started to develop signs and symptoms of arthritis following the ‘booster’ immunisation.
For macroscopic assessment of arthritis, the following signs were monitored in each paw of each mouse three times per week and summed to generate the Arthritic Index (A1) (the maximum A1 for one animal is 16): • 0=no visible effects of arthritis. • 1=oedema and/or erythema of 1 digit. • 2=oedema and/or erythema of 2 digits. • 3=oedema and/or erythema of more than 2 digits. • 4=severe arthritis of entire paw and digits.
Animals were sorted into treatment groups with a mean arthritic index of 2.5 and then dosed once daily for 14 days with compound: by oral gavage for test compounds, or by subcutaneous injection at a dose of 10 mg/kg for the positive control, etanercept. After completion of the experiment, the mice were sacrificed.
The data were analysed by generating an average of the arthritic index across each treatment group. The mean arthritic index was then compared to the arthritic index of control (untreated) animals using the following formula to generate a percentage inhibition of disease.

hERG ion channel, sequence (Q12809 whole entry): as above

SMILES	cardiac safety profile, hERG (in words) [1]	inhibition at 60 min, 30 µM [2]	solubility at 16 h [3]	pIC50 ([4]; 8-point concentration range from 100 μM to 100 nM)	hepatocyte CLint at 1 μM [5]	half-life at 1 μM [5]	metabolic stability (in words) [6]	% inhibition of disease [7]	solubility (in words) [3]	pIC50 ([4]; 9-point concentration range from 10 μM to 10 nM)
CC(=O)N1CCC(C(C)(C)S(=O)(=O)c2ccc(-c3ccc(F)cc3F)cc2)CC1 [NASMP-18, 1-(4-(2-((2′,4′-Difluoro-[1,1′-biphenyl]-4-yl)sulfonyl)propan-2-yl)piperidin-1-yl)ethan-1-one]	particularly positive profile	14%	39 µg/mL (≈ 92.5 µM)	4.55	3.8 µL/min/1e6 cells	5.87 h	exceptionally good stability			
C[C@]1(O)CC[C@@H](NS(=O)(=O)c2ccc(-c3ccc(Cl)cc3C#N)cc2)CC1 [HMC-C-01-B]								26%		
CC(=O)N1CCC(C2(S(=O)(=O)c3ccc(-c4ccc(F)cc4F)cc3)CC2)CC1 [NASMP-21, 1-(4-(1-((2′,4′-Difluoro-[1,1′-biphenyl]-4-yl)sulfonyl)cyclopropyl)piperidin-1-yl)ethan-1-one]	particularly positive profile	1%	71 µg/mL (≈ 169 µM)		13.4 µL/min/1e6 cells	1.74 h			particularly good solubility	5.21
